{"source": "the supplement of paper PMC10307832", "assay_in_all_cases": "relative viability (nuclei count vs DMSO), 5 days (fraction); higher = more cells survive", "key": {"[1]": {"system": "201T", "outline": "(§1)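 Lung cancer cell lines, seeded in 1536-well plates, were treated the following day by pin tool with a single drug or with five library-drug doses (not always all listed) in √10 steps on top of a fixed anchor-drug dose. Cells were fixed and nuclei stained in one step after 5 days, and nuclei were counted. Relative viability is the nuclei count for treated wells divided by that for vehicle wells, reported as medians of duplicate plates.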"}, "[2]": {"system": "A-427", "outline": "as §1"}, "[3]": {"system": "ABC-1", "outline": "as §1"}, "[4]": {"system": "BEN", "outline": "as §1"}, "[5]": {"system": "H3255", "outline": "as §1"}, "[6]": {"system": "HCC-15", "outline": "as §1"}, "[7]": {"system": "LC-2-ad", "outline": "as §1"}, "[8]": {"system": "LCLC-97TM1", "outline": "as §1"}, "[9]": {"system": "NCI-H1650", "outline": "as §1"}, "[10]": {"system": "NCI-H1651", "outline": "as §1"}, "[11]": {"system": "NCI-H1792", "outline": "as §1"}, "[12]": {"system": "NCI-H1915", "outline": "as §1"}}}
{"compound": "Clc1ccc(Nc2nnc(Cc3ccncc3)c3ccccc23)cc1", "note": "[Vatalanib] + Nc1ncn([C@H]2C[C@H](O)[C@@H](CO)O2)c(=O)n1 [Decitabine] (partner 2 µM)", "values": [{"measurement": "relative viability", "setting": "[1]; first compound 0.04 µM", "value": 0.832}, {"measurement": "relative viability", "setting": "[1]; first compound 0.1265 µM", "value": 0.85}, {"measurement": "relative viability", "setting": "[1]; first compound 0.4 µM", "value": 0.881}, {"measurement": "relative viability", "setting": "[1]; first compound 1.265 µM", "value": 0.867}, {"measurement": "relative viability", "setting": "[1]; first compound 4 µM", "value": 0.861}, {"measurement": "relative viability", "setting": "[2]; first compound 0.04 µM", "value": 0.6}, {"measurement": "relative viability", "setting": "[2]; first compound 0.1265 µM", "value": 0.544}, {"measurement": "relative viability", "setting": "[2]; first compound 0.4 µM", "value": 0.601}, {"measurement": "relative viability", "setting": "[2]; first compound 4 µM", "value": 0.535}, {"measurement": "relative viability", "setting": "[3]; first compound 0.04 µM", "value": 1.02}, {"measurement": "relative viability", "setting": "[3]; first compound 0.1265 µM", "value": 0.79}, {"measurement": "relative viability", "setting": "[3]; first compound 0.4 µM", "value": 1.17}, {"measurement": "relative viability", "setting": "[3]; first compound 4 µM", "value": 1.22}, {"measurement": "relative viability", "setting": "[4]; first compound 0.04 µM", "value": 0.644}, {"measurement": "relative viability", "setting": "[4]; first compound 0.1265 µM", "value": 0.727}, {"measurement": "relative viability", "setting": "[4]; first compound 0.4 µM", "value": 0.504}, {"measurement": "relative viability", "setting": "[4]; first compound 1.265 µM", "value": 0.739}, {"measurement": "relative viability", "setting": "[4]; first compound 4 µM", "value": 0.774}, {"measurement": "relative viability", "setting": "[5]; first compound 0.04 µM", "value": 0.526}, {"measurement": "relative viability", "setting": "[5]; first compound 0.1265 µM", "value": 0.616}, {"measurement": "relative viability", "setting": "[5]; first compound 0.4 µM", "value": 0.515}, {"measurement": "relative viability", "setting": "[5]; first compound 1.265 µM", "value": 0.613}, {"measurement": "relative viability", "setting": "[5]; first compound 4 µM", "value": 0.551}, {"measurement": "relative viability", "setting": "[6]; first compound 0.04 µM", "value": 0.607}, {"measurement": "relative viability", "setting": "[6]; first compound 0.1265 µM", "value": 0.689}, {"measurement": "relative viability", "setting": "[6]; first compound 0.4 µM", "value": 0.716}, {"measurement": "relative viability", "setting": "[6]; first compound 1.265 µM", "value": 0.627}, {"measurement": "relative viability", "setting": "[6]; first compound 4 µM", "value": 0.665}, {"measurement": "relative viability", "setting": "[7]; first compound 0.04 µM", "value": 0.803}, {"measurement": "relative viability", "setting": "[7]; first compound 0.1265 µM", "value": 0.753}, {"measurement": "relative viability", "setting": "[7]; first compound 0.4 µM", "value": 0.768}, {"measurement": "relative viability", "setting": "[7]; first compound 1.265 µM", "value": 0.776}, {"measurement": "relative viability", "setting": "[7]; first compound 4 µM", "value": 0.861}, {"measurement": "relative viability", "setting": "[8]; first compound 0.04 µM", "value": 0.237}, {"measurement": "relative viability", "setting": "[8]; first compound 0.1265 µM", "value": 0.19}, {"measurement": "relative viability", "setting": "[8]; first compound 0.4 µM", "value": 0.25}, {"measurement": "relative viability", "setting": "[8]; first compound 1.265 µM", "value": 0.224}, {"measurement": "relative viability", "setting": "[8]; first compound 4 µM", "value": 0.232}, {"measurement": "relative viability", "setting": "[9]; first compound 0.04 µM", "value": 0.361}, {"measurement": "relative viability", "setting": "[9]; first compound 0.1265 µM", "value": 0.414}, {"measurement": "relative viability", "setting": "[9]; first compound 0.4 µM", "value": 0.388}, {"measurement": "relative viability", "setting": "[9]; first compound 1.265 µM", "value": 0.373}, {"measurement": "relative viability", "setting": "[9]; first compound 4 µM", "value": 0.424}, {"measurement": "relative viability", "setting": "[10]; first compound 0.04 µM", "value": 0.518}, {"measurement": "relative viability", "setting": "[10]; first compound 0.1265 µM", "value": 0.59}, {"measurement": "relative viability", "setting": "[10]; first compound 0.4 µM", "value": 0.495}, {"measurement": "relative viability", "setting": "[10]; first compound 1.265 µM", "value": 0.565}, {"measurement": "relative viability", "setting": "[10]; first compound 4 µM", "value": 0.668}, {"measurement": "relative viability", "setting": "[11]; first compound 0.04 µM", "value": 0.614}, {"measurement": "relative viability", "setting": "[11]; first compound 0.1265 µM", "value": 0.465}, {"measurement": "relative viability", "setting": "[11]; first compound 0.4 µM", "value": 0.608}, {"measurement": "relative viability", "setting": "[11]; first compound 1.265 µM", "value": 0.515}, {"measurement": "relative viability", "setting": "[11]; first compound 4 µM", "value": 0.55}, {"measurement": "relative viability", "setting": "[12]; first compound 0.04 µM", "value": 0.251}, {"measurement": "relative viability", "setting": "[12]; first compound 0.1265 µM", "value": 0.257}, {"measurement": "relative viability", "setting": "[12]; first compound 0.4 µM", "value": 0.273}]}
